Assay results from ChEMBL document CHEMBL5512613, “Design and synthesis of novel 3-amino-5-phenylpyrazole derivatives as tubulin polymerization inhibitors targeting the colchicine-binding site” (Eur J Med Chem, 2024).
The source made the active and inactive calls. The calls are words filed in the database; no cut-off is given here.

Experiments:
[1] = test system: MCF7; experiment: Antiproliferative activity against human MCF7 cells assessed as inhibition of cell growth incubated for 48 hrs by MTT assay; assay type: functional, cell-based; settings: MCF7, 48 h
[2] = test system: A549; experiment: Antiproliferative activity against human A549 cells assessed as inhibition of cell growth incubated for 48 hrs by MTT assay; assay type: functional, cell-based; settings: A549, 48 h
[3] = test system: HT-29; experiment: Antiproliferative activity against human HT-29 cells assessed as inhibition of cell growth incubated for 48 hrs by MTT assay; assay type: functional, cell-based; settings: HT-29, 48 h
[4] = test system: HeLa; experiment: Antiproliferative activity against human HeLa cells assessed as inhibition of cell growth incubated for 48 hrs by MTT assay; assay type: functional, cell-based
[5] = Cytotoxicity against human L02 cells assessed as inhibition of cell growth incubated for 48 hrs by MTT assay; assay type: toxicity, cell-based
[6] = target: Tubulin; experiment: Inhibition of tubulin polymerization (unknown origin) measured for 60 mins by fluorescence based analysis; assay type: protein-complex assay, Homo sapiens
[7] = target: Tubulin (Homo sapiens) (UniProt P68371+Q9H4B7+P0DPH7+P68366+Q13509+Q71U36+P04350+Q3ZCM7+P07437+P68363+Q9BQE3+Q6PEY2+Q13885+Q9BVA1+Q9BUF5); experiment: Displacement of [3H]colchicine from tubulin (unknown origin) at 1 uM incubated for 2 hrs by scinitillation proximity assay; assay type: protein-complex assay
[8] = target: Tubulin beta (Homo sapiens) (UniProt P68371+Q9H4B7+Q13509+P04350+Q3ZCM7+P07437+Q13885+Q9BVA1+Q9BUF5+A6NNZ2); experiment: Binding affinity to beta-tubulin (unknown origin) assessed as decrease in beta-tubulin/EBI adduct formation at 0.2 to 25 uM incubated for 2 hrs followed by incubation with EBI for 1.5 hrs by EBI competition based western blot analysis; assay type: protein assay; settings: dose 0.2-25 µM, time 3.5 hrs
[9] = test system: MCF7; experiment: Induction of cell cycle arrest in human MCF7 cells assessed as proportion of cells at G1 phase at 6.25 nM incubated for 24 hrs by PI staining based flow cytometry (reference value: 64.5%); assay type: functional
[10] = test system: MCF7; experiment: Induction of cell cycle arrest in human MCF7 cells assessed as proportion of cells at G2 phase at 6.25 nM incubated for 24 hrs by PI staining based flow cytometry (reference value: 14.4%); assay type: functional
[11] = test system: MCF7; experiment: Induction of cell cycle arrest in human MCF7 cells assessed as proportion of cells at S phase at 6.25 nM incubated for 24 hrs by PI staining based flow cytometry (reference value: 21.1%); assay type: functional
[12] = test system: MCF7; experiment: Induction of cell cycle arrest in human MCF7 cells assessed as proportion of cells at G1 phase at 12.5 nM incubated for 24 hrs by PI staining based flow cytometry (reference value: 64.5%); assay type: functional
[13] = test system: MCF7; experiment: Induction of cell cycle arrest in human MCF7 cells assessed as proportion of cells at S phase at 12.5 nM incubated for 24 hrs by PI staining based flow cytometry (reference value: 21.1%); assay type: functional
[14] = test system: MCF7; experiment: Induction of cell cycle arrest in human MCF7 cells assessed as proportion of cells at G1 phase at 25 nM incubated for 24 hrs by PI staining based flow cytometry (reference value: 64.5%); assay type: functional
[15] = test system: MCF7; experiment: Induction of cell cycle arrest in human MCF7 cells assessed as proportion of cells at G2 phase at 25 nM incubated for 24 hrs by PI staining based flow cytometry (reference value: 14.4%); assay type: functional
[16] = test system: MCF7; experiment: Induction of cell cycle arrest in human MCF7 cells assessed as proportion of cells at S phase at 25 nM incubated for 24 hrs by PI staining based flow cytometry (reference value: 21.1%); assay type: functional
[17] = test system: MCF7; experiment: Induction of cell cycle arrest in human MCF7 cells assessed as proportion of cells at G2 phase at 25 nM incubated for 6 hrs by PI staining based flow cytometry (reference value: 14.4%); assay type: functional
[18] = test system: MCF7; experiment: Induction of cell cycle arrest in human MCF7 cells assessed as proportion of cells at S phase at 25 nM incubated for 6 hrs by PI staining based flow cytometry (reference value: 21.1%); assay type: functional
[19] = test system: MCF7; experiment: Induction of cell cycle arrest in human MCF7 cells assessed as proportion of cells at G1 phase at 25 nM incubated for 12 hrs by PI staining based flow cytometry (reference value: 64.5%); assay type: functional
[20] = test system: MCF7; experiment: Induction of cell cycle arrest in human MCF7 cells assessed as proportion of cells at G2 phase at 25 nM incubated for 12 hrs by PI staining based flow cytometry (reference value: 14.4%); assay type: functional
[21] = test system: MCF7; experiment: Induction of cell cycle arrest in human MCF7 cells assessed as increase in cyclin B1 protein expression at 6.25 to 50 nM incubated for 24 hrs by western blot analysis; assay type: functional, cell-based; settings: dose 6.25-50 nM
[22] = test system: MCF7; experiment: Induction of cell cycle arrest in human MCF7 cells assessed as increase in CDK7 protein expression at 6.25 to 50 nM incubated for 24 hrs by western blot analysis; assay type: functional, cell-based; settings: dose 6.25-50 nM
[23] = test system: MCF7; experiment: Induction of apoptosis in human MCF7 cells at 12.5 to 50 nM incubated for 24 hrs by AnnexinV-FITC/PI staining based flow cytometry; assay type: functional, cell-based; settings: dose 12.5-50 nM
[24] = test system: MCF7; experiment: Induction of apoptosis in human MCF7 cells at 50 nM incubated for 12 to 48 hrs by AnnexinV-FITC/PI staining based flow cytometry; assay type: functional, cell-based; settings: time 12-48 hrs, TDE = time-dependent effect
[25] = test system: MCF7; experiment: Induction of apoptosis in human MCF7 cells assessed as increase in Bax protein expression at 6.25 to 50 nM incubated for 24 hrs by western blot analysis; assay type: functional, cell-based; settings: dose 6.25-50 nM
[26] = test system: MCF7; experiment: Induction of apoptosis in human MCF7 cells assessed as increase in cleaved caspase-3 protein expression at 6.25 to 50 nM incubated for 24 hrs by western blot analysis; assay type: functional, cell-based; settings: dose 6.25-50 nM
[27] = test system: MCF7; experiment: Induction of apoptosis in human MCF7 cells assessed as decrease in Bcl-2 protein expression at 6.25 to 50 nM incubated for 24 hrs by western blot analysis; assay type: functional, cell-based; settings: dose 6.25-50 nM
[28] = test system: HUVEC; experiment: Anti-vascular activity in human HUVEC cells assessed as reduction in length of capillary-like tubules incubated for 6 hrs by Matrigel based inverted fluorescence microscopy; assay type: functional, cell-based; settings: dose 6.25-50 nM
[29] = test system: A549; experiment: Inhibition of cell migration in human A549 cells at 2.5 to 10 nM incubated for 12 to 48 hrs by fluorescent inverted microscopy; assay type: functional, cell-based; settings: dose 2.5-10 nM, time 12-48 hrs
[30] = test system: A549; experiment: Inhibition of cell migration in human A549 cells assessed as decrease in number of cells passing through membrane at 6.25 to 50 nM incubated for 24 hrs by transwell assay; assay type: functional, cell-based; settings: dose 6.25-50 nM
[31] = test system: MCF7; experiment: Antitumor activity against human MCF7 cells xenografted in BALB/c mouse assessed as inhibition of tumor growth by measuring decrease in tumor weight at 20 mg/kg, ip administered every 3 days for 21 days; assay type: functional; settings: MCF7, 504 h, time 21 day, read-out: TGI
[32] = test system: MCF7; experiment: Antitumor activity against human MCF7 cells xenografted in BALB/c mouse assessed as inhibition of tumor growth by measuring decrease in tumor weight at 10 mg/kg, ip administered every 3 days for 21 days; assay type: functional; settings: MCF7, 504 h, time 21 day, read-out: TGI
[33] = test system: MCF7; experiment: Induction of apoptosis in human MCF7 cells assessed as increase in cleaved caspase-9 protein expression at 6.25 to 50 nM incubated for 24 hrs by western blot analysis; assay type: functional, cell-based; settings: dose 6.25-50 nM

In the case of `COc1cc(C(=O)n2nc(N)cc2-c2ccc(C)cc2)cc(OC)c1OC`, the IC50 [1] is reported as 0.04 µM, the IC50 [2] is reported as 0.39 µM and the IC50 [3] is reported as 0.06 µM. For the same molecule, the IC50 [4] was 0.11 µM, the IC50 at 48 h [5] was 2.73 µM and the IC50 [6] was 1.87 µM. The inhibition [7] was 68.4%, the Activity [8] was “Active” and the Activity [9] was 53.3%. For the same molecule, the Activity [10] was 28.3%, the Activity [11] was 18.4% and the Activity [12] was 45.1%. It also gave an Activity [13] of 15.7%, an Activity [14] of 7.65% and an Activity [15] of 80.2%. The Activity [16] was 10.65%, the Activity [17] was 46.7% and the Activity [18] was 22%. For the same molecule, the Activity [19] was 14.3%, the Activity [20] was 62.8% and the Activity [21] was “Active”. For the same molecule, the Activity [22] was “Active”, the Activity [23] was “Dose-Dependent Effect” and the Activity [24] was “Tde”. For the same molecule, the Activity [25] was “Active”, the Activity [26] was “Active” and the Activity [27] was “Active”. For the same molecule, the Activity [28] was “Dose-Dependent Effect”, the inhibition [29] was “Dose-Dependent Effect” and the inhibition [30] was “Active”. The inhibition in vivo at 20 mg/kg [31] was 69%, the inhibition in vivo at 10 mg/kg [32] was 36.1% and the Activity [33] was “Active”.
